This note sets out measurements from PubChem BioAssay AID389 (SGCOxCompounds, 2006).

The test deals with Serine/threonine-protein kinase PAK 4 (Homo sapiens) (UniProt O96013). As to the kind of experiment: PAK4 kinase ligand binding by thermal shift, biophysical, human, DSF, SYPRO orange (AID 389). Conditions: recombinant PAK4 DSF thermal shift, at 10 µM, protein 2 µM, buffer 10 mM HEPES, pH 7.5, NaCl 150 mM, hits give high values.
Sequence of Serine/threonine-protein kinase PAK 4 (Homo sapiens) (O96013 whole entry, looked up): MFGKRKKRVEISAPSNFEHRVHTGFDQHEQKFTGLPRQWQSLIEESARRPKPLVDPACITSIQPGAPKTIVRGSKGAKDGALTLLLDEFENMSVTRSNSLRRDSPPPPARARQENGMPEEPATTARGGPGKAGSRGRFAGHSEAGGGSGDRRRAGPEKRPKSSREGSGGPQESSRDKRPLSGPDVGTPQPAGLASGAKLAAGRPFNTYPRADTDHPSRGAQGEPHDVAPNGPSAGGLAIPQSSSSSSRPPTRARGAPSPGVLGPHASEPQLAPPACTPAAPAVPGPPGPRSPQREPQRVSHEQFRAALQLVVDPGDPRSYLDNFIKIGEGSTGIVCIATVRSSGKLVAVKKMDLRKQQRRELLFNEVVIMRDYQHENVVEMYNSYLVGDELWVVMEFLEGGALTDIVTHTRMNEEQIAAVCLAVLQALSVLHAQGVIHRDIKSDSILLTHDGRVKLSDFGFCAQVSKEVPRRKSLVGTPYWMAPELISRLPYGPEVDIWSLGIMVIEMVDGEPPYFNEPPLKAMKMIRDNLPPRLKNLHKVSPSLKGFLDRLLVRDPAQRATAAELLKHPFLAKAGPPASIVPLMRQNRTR

For `Cc1cc(Nc2nc(-c3ccccc3)nc3ccccc23)n[nH]1`, the Tm shift is 5.9 Celsius.

Take `O=C1NC(=O)c2c1c1c3ccccc3n3c1c1c2c2ccccc2n1[C@@H]1CCC3O1`: the Tm shift was 4.92 Celsius. As for `O=c1[nH]c(O)c2c1c1c3ccccc3nc1n1cncc21`, the Tm shift is 3.8 Celsius.

In the case of `CC(C)n1cnc2c(Nc3cccc(Cl)c3)nc(NCCO)nc21`, the Tm shift is 3.7 Celsius. Take `CC(O)(O)C1(O)C[C@@H]2O[C@@]1(C)n1c3ccccc3c3c4c(c5c6ccccc6n2c5c31)C(=O)NC4` (stereo partly drawn): the Tm shift was 3.9 Celsius. With `N#CCCc1ccc2c(c1)-c1[nH]c3ccc(-n4oo4)cc3c1CC(=O)N2`, the Tm shift is 3.68 Celsius. On to `Clc1ccc(-c2cnc3ccc(NC4CCOCC4)nn23)cc1`, for which the Tm shift was 3.1 Celsius. As to `NS(=O)(=O)c1ccc(Nc2nc(OCC3CCCCC3)c3[nH]cnc3n2)cc1`, the Tm shift was 3.8 Celsius.

Regarding `NCCCn1cc(C2=C(c3c[nH]c4ccccc34)C(=O)NC2=O)c2ccccc21`, the Tm shift is 4.27 Celsius. To `CC(C)C(CO)Nc1nc(Nc2cccc(Cl)c2)c2ncn(C(C)C)c2n1` (stereo not drawn) belongs 4.7 Celsius; to `OCC(O)CCO/N=C1/C(c2c(O)[nH]c3ccccc23)=Nc2ccccc21` (stereo not drawn), 4.7 Celsius. With `O=C1NCc2c1c1c3ccccc3[nH]c1c1[nH]c3ccccc3c21`, the Tm shift was 3.8 Celsius. As to `NC(=O)Nc1sc(-c2ccccc2)cc1C(N)=O`, the Tm shift was 4.28 Celsius. On to `CCn1cnc2c(Nc3cccc(Cl)c3)nc(N[C@@H]3CCCC[C@@H]3N)nc21`, for which the Tm shift was 6.44 Celsius. To `Cn1cc(/C=C2\C(=O)Nc3ccc(S(N)(=O)=O)cc32)c2ccccc21` belongs 3.69 Celsius. In the case of `COc1cc(/C=C/C(=O)CC(=O)/C=C/c2ccc(O)c(OC)c2)ccc1O`, the Tm shift was 3.34 Celsius. With `N=C(N)SCCCn1cc(C2=C(c3c[nH]c4ccccc34)C(=O)NC2=O)c2ccccc21` the figure was 3.43 Celsius; with `O=Nc1c(-c2c(O)[nH]c3ccc(I)cc23)[nH]c2ccccc12`, 3.73 Celsius; with `O=C1Cc2c([nH]c3ccc(Br)cc23)-c2ccccc2N1`, 4.62 Celsius.

In the case of `NCCNc1ncc(C(N)=O)c(Nc2cccc(C(F)(F)F)c2)n1`, the Tm shift is 5.9 Celsius. For `Nc1nc(Nc2ccc(S(N)(=O)=O)cc2)nn1C(=S)Nc1c(F)cccc1F`, the Tm shift is 6.03 Celsius.

On to `CCN(CC)CCNC(=O)c1c(C)[nH]c(/C=C2\C(=O)Nc3ccc(Cl)cc32)c1C`, for which the Tm shift was 6.4 Celsius. In the case of `O=C(c1ccc(Nc2nccc(-c3cc4ccccc4s3)n2)cc1)N1CCC(N2CCCC2)CC1`, the Tm shift was 3.23 Celsius.
